Reference: patent US20230110757A1, “METHODS FOR TREATING ANIMALS, FEED, DRINKING WATER, WASH WATER, PROCESSING EQUIPMENT, PACKAGING MATERIALS, AND FOOD PRODUCTS” (EVOQ NANO, INC., priority 2021, published 2023)

Test system: E. coli, KwikStik, ATCC #51813
Assay: Antibacterial efficacy test, RLU (ATP) counts post treatment
Assay type: cell-based
Method: An antibacterial efficacy test was carried out comparing an “Attostat” nanoparticle formulation (8 nm size) against silver nitrate and against the National Institute of Standards and Technology (NIST) Standard Nanocomposix 10 nm silver nanoparticles. The NIST nanoparticles are formed by a chemical reduction process that utilizes citrate as reducing and capping agent.
Relative Light Unit (RLU) counts were recorded at 12 hours and 24 hours post treatment. RLU measurements were carried out using a Hygiena SystemSURE Plus V.2 SN067503 RLU meter with Hygenia AquaSnap TOTAL ATP Water Test Cat #U143 Lot #153019. Culturing media was Hardy Diagnostics Buffered Peptone Water Lot #118272. Samples were prepared with the nanoparticle treatments and then diluted with the media to provide the tested concentrations. The test organism (Microbiologics, E. coli, KwikStik, ATCC #51813, Ref #0791 K, Lot #791-1-6) was incubated in fresh Buffered Peptone Water growth media for 24 hours prior to exposure to the nanoparticle treatments.

SMILES: O=[N+]([O-])[O-].[Ag+] [AgNO3 Silver Nitrate, silver nitrate]
- RLU Counts at 12 Hours Post Exposure to Nanoparticle Treatment (0.25 ppm (mg/L)): 80 RLU
- RLU as percentage of control at 12 Hours Post Treatment (0.25 ppm (mg/L)): 1.2%
- RLU Counts at 24 Hours Post Exposure to Nanoparticle Treatment (0.25 ppm (mg/L)): 25 RLU
- RLU as percentage of control at 24 Hours Post Treatment (0.25 ppm (mg/L)): 0.34%
- RLU Counts at 12 Hours Post Exposure to Nanoparticle Treatment (0.5 ppm (mg/L)): 75 RLU
- RLU as percentage of control at 12 Hours Post Treatment (0.5 ppm (mg/L)): 1.1%
- RLU Counts at 24 Hours Post Exposure to Nanoparticle Treatment (0.5 ppm (mg/L)): 46 RLU
- RLU as percentage of control at 24 Hours Post Treatment (0.5 ppm (mg/L)): 0.62%
- RLU Counts at 12 Hours Post Exposure to Nanoparticle Treatment (1.0 ppm (mg/L)): 84 RLU
- RLU as percentage of control at 12 Hours Post Treatment (1.0 ppm (mg/L)): 1.3%
- RLU Counts at 24 Hours Post Exposure to Nanoparticle Treatment (1.0 ppm (mg/L)): 30 RLU
- RLU as percentage of control at 24 Hours Post Treatment (1.0 ppm (mg/L)): 0.41%
